The text below walks through data of ChEMBL document CHEMBL1133461, “ElogPoct: a tool for lipophilicity determination in drug discovery” (J Med Chem, 2000).

The nature of data set [1]: Partition coefficient (logP) (HPLC). The following applies: octanol/water.
Data set [2] is described as follows: Partition coefficient (logP). The following applies: octanol/water.
Data set [3] in a line: HPLC capacity factor (k). Type of data set: ADME.

As to `c1ccc2ccccc2c1`, the “Log k'w” value is 3.06. The logP (usually the decadic logarithm of the partition coefficient of the neutral form, usually between octanol and water) in data set [1] came out at 3.51.

On to `Oc1cc(Cl)cc(Cl)c1`, for which the “Log k'w” value was found to be 3.4. In addition, the logP in data set [1] is 3.88. Moreover, the logP in data set [2] came to 3.68.

With `CSc1ncnc2c1ncn2[C@@H]1O[C@H](CO)[C@@H](O)[C@H]1O`, the “Log k'w” value is reported as 0.19. Also, in data set [1], the logP turned out to be 0.34.

For the molecule `Oc1cccc(Cl)c1`, the “Log k'w” value is recorded as 2.49.

`Brc1cnc2ccccc2c1`: the “Log k'w” value was determined as 2.54. For the same molecule, in data set [1], the logP turned out to be 2.93.

With `CC(=O)Nc1ccc(O)cc1` [ACETAMINOPHEN], the log partition coefficient (logP) in data set [1] came to 0.11; in data set [2], 0.51. In data set [3], the “Log K'w” value was -0.02.

Take `CC(=O)c1ccccc1` [ACETOPHENONE]: the “Log k'w” value amounted to 1.31.

`Oc1ncnc2[nH]ncc12` [ALLOPURINOL] registered a logP in data set [1] of -0.85. In data set [3], the “Log K'w” value is recorded as -0.89.

Consider `Cc1cc(=O)n(-c2ccccc2)n1C` [ANTIPYRINE], for which the “Log K'w” value in data set [3] was determined as 0.09.

Take `c1ccc(-c2ccc(C(c3ccccc3)n3ccnc3)cc2)cc1` (stereo unspecified) [BIFONAZOLE]: the “Log k'w” value is 4.37. The lipophilicity (logP) in data set [1] is 4.95.

As to `O=C1CN=C(c2ccccn2)c2cc(Br)ccc2N1` [BROMAZEPAM], the logP is 1.38 in data set [1] and 1.65 in data set [2]. Besides, the “Log K'w” value in data set [3] turned out to be 1.13.

With `Cn1c(=O)c2c(ncn2C)n(C)c1=O` [CAFFEINE], the “Log k'w” value is given as -0.31.

In the case of `NC(=O)N1c2ccccc2C=Cc2ccccc21` [CARBAMAZEPINE], the results for the log partition coefficient (logP) in data set [1] and in data set [2] were 2.01 and 2.19, respectively. Besides, in data set [3], the “Log K'w” value was found to be 1.7.

On to `Clc1ccccc1C(c1ccccc1)(c1ccccc1)n1ccnc1` [CLOTRIMAZOLE], for which the “Log k'w” value is 4.13.

As to `C[C@@H]1C[C@H]2[C@@H]3CCC4=CC(=O)C=C[C@]4(C)[C@@]3(F)[C@@H](O)C[C@]2(C)[C@@]1(O)C(=O)CO` [DEXAMETHASONE], the “Log k'w” value worked out at 2.03. In data set [1], the lipophilicity (logP) was 2.37.

Take `CC/C(=C(/CC)c1ccc(O)cc1)c1ccc(O)cc1` [DIETHYLSTILBESTROL]: the “Log k'w” value was 4.16. In addition, the log partition coefficient (logP) in data set [1] came out at 4.72.

For the molecule `C[C@]12CC[C@@H]3c4ccc(O)cc4CC[C@H]3[C@@H]1CC[C@@H]2O` [ESTRADIOL], the “Log k'w” value stood at 3.34. Besides, the lipophilicity (logP) in data set [1] worked out at 3.82.

Turning to `COC1=CC(=O)C[C@@H](C)[C@]12Oc1c(Cl)c(OC)cc(OC)c1C2=O` [GRISEOFULVIN], the “Log k'w” value is on record as 2.21. In addition, in data set [1], the lipophilicity (logP) stood at 2.57.

In the case of `CC(=O)OCC(=O)[C@@]1(O)CC[C@H]2[C@@H]3CCC4=CC(=O)CC[C@]4(C)[C@H]3[C@@H](O)C[C@@]21C` [HYDROCORTISONE ACETATE], the “Log k'w” value was found to be 1.93. For the same molecule, the lipophilicity (logP) in data set [1] worked out at 2.26. In data set [2], this molecule displayed a lipophilicity (logP) of 2.19.

For the molecule `C[C@]12CCC(=O)C=C1CC[C@@H]1[C@@H]2[C@@H](O)C[C@@]2(C)[C@H]1CC[C@]2(O)C(=O)CO` [HYDROCORTISONE], the “Log k'w” value turned out to be 1.43.

For `O=C1Nc2ccc(Cl)cc2C(c2ccccc2Cl)=NC1O` (stereo unspecified) [LORAZEPAM], the logP in data set [1] came to 2.74. In addition, in data set [3], the “Log K'w” value was 2.36.

On to `CN1C(=O)C(O)N=C(c2ccccc2Cl)c2cc(Cl)ccc21` (stereo unspecified) [LORMETAZEPAM], for which the “Log k'w” value was determined as 2.4. This molecule gave a logP in data set [1] of 2.78. Besides, the logP in data set [2] is 2.72.

`Cc1ncc([N+](=O)[O-])n1CCO` [METRONIDAZOLE] registered a logP in data set [1] of -0.22. Besides, the “Log K'w” value in data set [3] is reported as -0.32.

For the molecule `O=[N+]([O-])c1ccc(/C=N/O)o1` [NIFUROXIME], the “Log k'w” value was 1.11. Besides, the logP in data set [1] is 1.36. This molecule also had a logP in data set [2] of 1.28.

As for `NC(=O)N/N=C/c1ccc([N+](=O)[O-])o1` [NITROFURAZONE], the “Log k'w” value is given as 0.1. Also, the logP in data set [1] was 0.24.

On to `CC(=O)CCCCn1c(=O)c2c(ncn2C)n(C)c1=O` [PENTOXIFYLLINE], for which the “Log k'w” value is reported as 0.16. In addition, in data set [1], the logP came to 0.31. Also, in data set [2], the lipophilicity (logP) is 0.29.

Turning to `C[C@]12C=CC(=O)C=C1CC[C@@H]1[C@@H]2[C@@H](O)C[C@@]2(C)[C@H]1CC[C@]2(O)C(=O)CO` [PREDNISOLONE], the “Log k'w” value amounted to 1.54. Besides, the logP in data set [1] is 1.83.

For `C[C@]12C=CC(=O)C=C1CC[C@@H]1[C@@H]2C(=O)C[C@@]2(C)[C@H]1CC[C@]2(O)C(=O)CO` [PREDNISONE], the “Log k'w” value was 1.21. Also, in data set [1], the lipophilicity (logP) came out at 1.47.

Consider `c1ccc2ncccc2c1` [QUINOLINE], for which, in data set [1], the logP came to 1.85.

Turning to `C[C@]12CC[C@H]3[C@@H](CCC4=CC(=O)CC[C@@]43C)[C@@H]1CC[C@@H]2O` [TESTOSTERONE], the “Log k'w” value is reported as 2.74.

In the case of `CS(=O)(=O)c1ccc([C@@H](O)[C@@H](CO)NC(=O)C(Cl)Cl)cc1` [THIAMPHENICOL], the “Log k'w” value is recorded as -0.24. In data set [1], the logP was -0.13. Moreover, in data set [2], the log partition coefficient (logP) was -0.27.

Turning to `Cc1cccc(N(C)C(=S)Oc2ccc3ccccc3c2)c1` [TOLNAFTATE], the “Log k'w” value was found to be 4.55. Further, the log partition coefficient (logP) in data set [1] worked out at 5.15. In data set [2], this molecule yielded a lipophilicity (logP) of 5.4.
